Test results reported in patent US9464084B2, “P2X7 modulators” (Janssen Pharmaceutica NV, priority 2013, dated 2016).

Molecular target: P2X7 (Homo sapiens (Human), UniProt Q99572)
Assay: P2X7 antagonism in human PBMCs (LPS + Bz-ATP induced IL-1β release, ELISA);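 also: PBMCs from donor human blood, with a further 1.5 h incubation of the cells in the assay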
Assay type: cell-based
Details: compound 1 μM, LPS 30 ng/ml, Bz-ATP 0.5 mM

Chain of P2X7 (Q99572 whole entry): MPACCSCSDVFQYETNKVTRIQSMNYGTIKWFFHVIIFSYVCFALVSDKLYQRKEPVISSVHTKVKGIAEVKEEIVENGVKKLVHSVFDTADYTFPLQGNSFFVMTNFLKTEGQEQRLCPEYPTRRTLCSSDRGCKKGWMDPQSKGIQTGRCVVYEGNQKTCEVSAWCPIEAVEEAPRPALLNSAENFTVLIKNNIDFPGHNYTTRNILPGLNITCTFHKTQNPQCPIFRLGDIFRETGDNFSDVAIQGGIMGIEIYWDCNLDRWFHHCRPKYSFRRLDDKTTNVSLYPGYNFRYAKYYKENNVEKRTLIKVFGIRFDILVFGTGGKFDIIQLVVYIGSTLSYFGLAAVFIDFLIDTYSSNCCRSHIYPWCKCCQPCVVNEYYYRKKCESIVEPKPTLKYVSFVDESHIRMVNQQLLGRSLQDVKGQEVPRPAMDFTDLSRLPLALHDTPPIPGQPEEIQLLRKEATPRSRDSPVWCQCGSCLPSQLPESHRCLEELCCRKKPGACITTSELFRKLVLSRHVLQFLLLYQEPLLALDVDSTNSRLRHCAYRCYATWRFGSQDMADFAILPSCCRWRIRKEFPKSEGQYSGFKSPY

Compound | PBMC 1 μM (% control)
O=C(c1cccc(C(F)(F)F)c1Cl)N1CCc2c(ncn2-c2ccccc2)C1CO (stereo not drawn) [Example 30, (5-{[2-Chloro-3-(trifluoromethyl)phenyl]carbonyl}-1-phenyl-4,5,6,7-tetrahydro-1H-imidazo[4,5-c]pyridin-4-yl)methanol] | 87.0
O=C(c1ccc(F)cc1Cl)N1CCc2c(-c3ccccc3)n[nH]c2C1 [Example 323, (2-chloro-4-fluorophenyl)(3-phenyl-4,5-dihydro-1H-pyrazolo[3,4-c]pyridin-6(7H)-yl)methanone] | 102.4
CC1(C)Cc2cccc(C(=O)N3CCc4c(ncn4-c4ccccc4)C3)c2O1 [Example 52, 5-[(2,2-Dimethyl-2,3-dihydro-1-benzofuran-7-yl)carbonyl]-1-phenyl-4,5,6,7-tetrahydro-1H-imidazo[4,5-c]pyridine] | 98.9
O=C(c1cccc(Cl)c1Cl)N1CCc2c(-c3ccccc3)n[nH]c2C1 [Example 100, 6-[(2,3-Dichlorophenyl)carbonyl]-3-phenyl-4,5,6,7-tetrahydro-1H-pyrazolo[3,4-c]pyridine] | 9.2
Cn1nc2c(c1-c1cccnc1)CCN(C(=O)c1cccc(Cl)c1Cl)C2 [Example 111, 6-[(2,3-Dichlorophenyl)carbonyl]-2-methyl-3-pyridin-3-yl-4,5,6,7-tetrahydro-2H-pyrazolo[3,4-c]pyridine] | 15.7
O=C(c1cccc2c1OCC2)N1CCc2c(ncn2-c2ccccc2)C1 [Example 51, 5-(2,3-Dihydro-1-benzofuran-7-ylcarbonyl)-1-phenyl-4,5,6,7-tetrahydro-1H-imidazo[4,5-c]pyridine] | 97.6

Same assay, conditions: compound 10 μM, LPS 30 ng/ml, Bz-ATP 0.5 mM

Compound | PBMC 10 μM (% control)
CC1Cc2c(nnn2-c2ncc(F)cn2)CN1C(=O)c1cccc(C(F)(F)F)c1F (stereo not drawn) [Example 311, (2-fluoro-3-(trifluoromethyl)phenyl)(1-(5-fluoropyrimidin-2-yl)-6-methyl-6,7-dihydro-1H-[1,2,3]triazolo[4,5-c]pyridin-5(4H)-yl)methanone] | 63.6
COc1ccnc(-n2nnc3c2CCN(C(=O)c2cccc(C(F)(F)F)c2Cl)[C@@H]3C)c1 (single isomer, unassigned) [Example 152, (S*)-(2-Chloro-3-(trifluoromethyl)phenyl)(1-(4-methoxypyridin-2-yl)-4-methyl-6,7-dihydro-1H-[1,2,3]triazolo[4,5-c]pyridin-5(4H)-yl)methanone] | 15.4
COCCn1ccc(-n2nnc3c2CCN(C(=O)c2cccc(C(F)(F)F)c2Cl)[C@H]3C)n1 (single isomer, unassigned) [Example 249, (S*)-(2-Chloro-3-(trifluoromethyl)phenyl)(1-(1-(2-methoxyethyl)-1H-pyrazol-3-yl)-4-methyl-6,7-dihydro-1H-[1,2,3]triazolo[4,5-c]pyridin-5(4H)-yl)methanone] | 5.1
C[C@@H]1c2ncn(-c3ccc(F)cc3)c2CCN1C(=O)c1cccc(C(F)(F)F)c1Cl (single isomer, unassigned) [Example 46, (4R*)-5-{[2-Chloro-3-(trifluoromethyl)phenyl]carbonyl}-1-(4-fluorophenyl)-4-methyl-4,5,6,7-tetrahydro-1H-imidazo[4,5-c]pyridine] | 2.1
Cc1c(C(=O)N2Cc3nnn(-c4ncc(F)cn4)c3CC2C)cccc1C(F)(F)F (stereo not drawn) [Example 206, 1-(5-Fluoropyrimidin-2-yl)-6-methyl-5-{[2-methyl-3-(trifluoromethyl)phenyl]carbonyl}-4,5,6,7-tetrahydro-1H-[1,2,3]triazolo[4,5-c]pyridine] | −1.0
Cc1c(C(=O)N2CCc3c(nnn3-c3ncccn3)C2C)cccc1C(F)(F)F (stereo not drawn) [Example 282, (4-methyl-1-(pyrimidin-2-yl)-6,7-dihydro-1H-[1,2,3]triazolo[4,5-c]pyridin-5(4H)-yl)(2-methyl-3-(trifluoromethyl)phenyl)methanone] | −5.5
CC1Cc2c(nnn2-c2ncc(F)cn2)CN1C(=O)c1cccc(Cl)c1Cl (stereo not drawn) [Example 203, 5-[(2,3-Dichlorophenyl)carbonyl]-1-(5-fluoropyrimidin-2-yl)-6-methyl-4,5,6,7-tetrahydro-1H-[1,2,3]triazolo[4,5-c]pyridine] | 0.6
CC1Cc2c(nnn2-c2ccc(F)cc2)C(C)N1C(=O)c1cccc(C(F)(F)F)c1Cl (stereo not drawn) [Example 243, (2-Chloro-3-(trifluoromethyl)phenyl)(1-(4-fluorophenyl)-4,6-dimethyl-6,7-dihydro-1H-[1,2,3]triazolo[4,5-c]pyridin-5(4H)-yl)methanone] | 1.0
C[C@@H]1c2ncn(-c3ccccn3)c2CCN1C(=O)c1cccc(C(F)(F)F)c1F (single isomer, unassigned) [Example 42, (4R*)-5-{[2-Fluoro-3-(trifluoromethyl)phenyl]carbonyl}-4-methyl-1-pyridin-2-yl-4,5,6,7-tetrahydro-1H-imidazo[4,5-c]pyridine] | 5.8
CC1Cc2c(nnn2-c2ccccc2)C(C)N1C(=O)c1cccc(C(F)(F)F)c1Cl (stereo not drawn) [Example 240, (2-Chloro-3-(trifluoromethyl)phenyl)(4,6-dimethyl-1-phenyl-6,7-dihydro-1H-[1,2,3]triazolo[4,5-c]pyridin-5(4H)-yl)methanone] | −8.9
Cc1c(C(=O)N2Cc3nnn(-c4ncc(F)cn4)c3C[C@H]2C)cccc1C(F)(F)F (single isomer, unassigned) [Example 207, (6R*)-1-(5-Fluoropyrimidin-2-yl)-6-methyl-5-{[2-methyl-3-(trifluoromethyl)phenyl]carbonyl}-4,5,6,7-tetrahydro-1H-[1,2,3]triazolo[4,5-c]pyridine] | 45.0
Cc1cccnc1-n1nnc2c1CCN(C(=O)c1cccc(C(F)(F)F)c1Cl)[C@H]2C (single isomer, unassigned) [Example 292, (S*)-(2-chloro-3-(trifluoromethyl)phenyl)(4-methyl-1-(3-methylpyridin-2-yl)-6,7-dihydro-1H-[1,2,3]triazolo[4,5-c]pyridin-5(4H)-yl)methanone] | 36.7
CC1c2ncn(-c3ncc(F)cn3)c2CCN1C(=O)c1cccc(C(F)(F)F)c1Cl (stereo not drawn) [Example 22, (2-Chloro-3-(trifluoromethyl)phenyl)(1-(5-fluoropyrimidin-2-yl)-4-methyl-6,7-dihydro-1H-imidazo[4,5-c]pyridin-5(4H)-yl)methanone] | −15.9
C[C@@H]1Cc2c(nnn2-c2cnccn2)CN1C(=O)c1cccc(C(F)(F)F)c1Cl (single isomer, unassigned) [Example 211, (6R*)-5-{[2-Chloro-3-(trifluoromethyl)phenyl]carbonyl}-6-methyl-1-pyrazin-2-yl-4,5,6,7-tetrahydro-1H-[1,2,3]triazolo[4,5-c]pyridine] | 28.5
C[C@H]1c2nnn(-c3cnccn3)c2CCN1C(=O)c1ccc(F)c(Cl)c1Cl (single isomer, unassigned) [Example 144, (S*)-(2,3-Dichloro-4-fluorophenyl)(4-methyl-1-(pyrazin-2-yl)-6,7-dihydro-1H-[1,2,3]triazolo[4,5-c]pyridin-5(4H)-yl)methanone] | 19.6
